Test results from PMC3100226 (Journal of Pain Research, 2011).

Columns and labels:
[1] = system: Sigma (σ1 + σ2); assay: Receptor characterization panel: sigma binding; details: [3H]DTG, whole brain/rat
[2] = biological target: CCK1 (Rattus norvegicus, UniProt P30551); assay: Receptor characterization panel: CCK1 binding; details: read-out: 10 μM CR4056 (% effect), inhibition of specific binding
[3] = biological target: T1, MAO-A (Rattus norvegicus, UniProt P21396); assay: MAO-A binding
T1 sequence (P21396 1-526): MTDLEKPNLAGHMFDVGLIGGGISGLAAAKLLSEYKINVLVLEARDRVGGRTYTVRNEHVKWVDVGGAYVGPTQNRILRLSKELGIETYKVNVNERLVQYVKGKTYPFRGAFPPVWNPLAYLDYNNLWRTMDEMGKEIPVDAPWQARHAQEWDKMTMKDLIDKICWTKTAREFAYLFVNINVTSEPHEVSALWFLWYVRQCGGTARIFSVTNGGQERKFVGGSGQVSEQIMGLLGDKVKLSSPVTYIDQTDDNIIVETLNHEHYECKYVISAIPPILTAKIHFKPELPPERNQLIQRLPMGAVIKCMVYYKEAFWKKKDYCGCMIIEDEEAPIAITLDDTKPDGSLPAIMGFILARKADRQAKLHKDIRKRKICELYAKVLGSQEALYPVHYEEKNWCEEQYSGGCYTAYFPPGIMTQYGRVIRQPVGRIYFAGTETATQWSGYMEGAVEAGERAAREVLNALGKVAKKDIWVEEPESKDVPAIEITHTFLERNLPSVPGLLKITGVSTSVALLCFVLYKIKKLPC

[4] = biological target: T2, human recombinant MAO-B (Homo sapiens, UniProt P27338); assay: Human recombinant MAO-B functional assay; assay type: biochemical
T2 sequence (P27338 1-520): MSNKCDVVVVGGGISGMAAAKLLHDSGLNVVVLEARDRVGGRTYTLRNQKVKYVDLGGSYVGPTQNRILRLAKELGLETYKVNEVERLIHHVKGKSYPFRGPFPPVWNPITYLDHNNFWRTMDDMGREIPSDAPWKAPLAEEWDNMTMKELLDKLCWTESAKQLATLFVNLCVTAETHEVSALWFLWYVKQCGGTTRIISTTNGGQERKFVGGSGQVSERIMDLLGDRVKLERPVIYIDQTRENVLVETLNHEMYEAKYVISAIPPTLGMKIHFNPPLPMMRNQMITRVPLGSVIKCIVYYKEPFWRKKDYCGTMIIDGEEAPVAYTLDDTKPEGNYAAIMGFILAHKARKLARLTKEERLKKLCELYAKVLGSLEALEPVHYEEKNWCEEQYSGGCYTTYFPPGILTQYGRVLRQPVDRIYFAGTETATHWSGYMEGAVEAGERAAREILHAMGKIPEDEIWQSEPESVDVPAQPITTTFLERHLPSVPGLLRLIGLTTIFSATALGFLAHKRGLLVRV

[5] = biological target: carbonic anhydrase II (Homo sapiens, UniProt P00918); assay: Enzyme characterization panel: carbonic anhydrase II; assay type: biochemical; details: data not shown
[6] = system: GABA-A (muscimol site); assay: Receptor characterization panel: GABA-A muscimol site binding; details: 10 μM; [3H]Muscimol; cerebral cortex/rat
[7] = biological target: PI 3-Kδ (Homo sapiens, UniProt O00329); assay: Enzyme characterization panel: PI 3-Kδ; assay type: biochemical; details: data not shown
Sequence of PI 3-Kδ (O00329 whole entry, species assumed): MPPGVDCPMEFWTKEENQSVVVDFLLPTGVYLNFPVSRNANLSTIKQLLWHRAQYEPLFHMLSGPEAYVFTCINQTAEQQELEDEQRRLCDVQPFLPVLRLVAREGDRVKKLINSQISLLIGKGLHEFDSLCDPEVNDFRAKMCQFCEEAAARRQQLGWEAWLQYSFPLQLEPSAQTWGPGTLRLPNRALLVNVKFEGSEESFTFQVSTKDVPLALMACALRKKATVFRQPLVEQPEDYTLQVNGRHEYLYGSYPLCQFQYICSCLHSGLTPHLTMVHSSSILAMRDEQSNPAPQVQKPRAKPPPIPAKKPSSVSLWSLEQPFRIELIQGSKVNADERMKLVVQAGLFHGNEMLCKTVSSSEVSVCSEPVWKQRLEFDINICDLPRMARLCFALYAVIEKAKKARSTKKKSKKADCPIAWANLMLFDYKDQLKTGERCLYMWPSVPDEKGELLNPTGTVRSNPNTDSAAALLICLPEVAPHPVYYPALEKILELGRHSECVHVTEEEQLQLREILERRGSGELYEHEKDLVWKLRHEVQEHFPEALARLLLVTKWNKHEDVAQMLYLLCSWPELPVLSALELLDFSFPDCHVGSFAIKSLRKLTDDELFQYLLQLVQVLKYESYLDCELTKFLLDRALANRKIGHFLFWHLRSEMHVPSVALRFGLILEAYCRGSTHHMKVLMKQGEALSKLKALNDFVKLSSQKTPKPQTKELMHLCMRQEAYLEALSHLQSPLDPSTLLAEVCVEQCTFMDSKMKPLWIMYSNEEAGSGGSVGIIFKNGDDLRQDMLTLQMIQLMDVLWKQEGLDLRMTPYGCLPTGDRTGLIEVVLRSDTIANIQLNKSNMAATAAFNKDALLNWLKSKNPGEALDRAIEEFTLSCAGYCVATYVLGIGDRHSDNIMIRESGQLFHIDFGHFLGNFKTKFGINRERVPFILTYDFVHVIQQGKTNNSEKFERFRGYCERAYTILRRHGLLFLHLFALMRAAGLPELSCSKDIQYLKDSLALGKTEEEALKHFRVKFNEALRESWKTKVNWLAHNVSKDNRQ
Sequence of PI 3-Kδ (P27986 whole entry partner, species assumed): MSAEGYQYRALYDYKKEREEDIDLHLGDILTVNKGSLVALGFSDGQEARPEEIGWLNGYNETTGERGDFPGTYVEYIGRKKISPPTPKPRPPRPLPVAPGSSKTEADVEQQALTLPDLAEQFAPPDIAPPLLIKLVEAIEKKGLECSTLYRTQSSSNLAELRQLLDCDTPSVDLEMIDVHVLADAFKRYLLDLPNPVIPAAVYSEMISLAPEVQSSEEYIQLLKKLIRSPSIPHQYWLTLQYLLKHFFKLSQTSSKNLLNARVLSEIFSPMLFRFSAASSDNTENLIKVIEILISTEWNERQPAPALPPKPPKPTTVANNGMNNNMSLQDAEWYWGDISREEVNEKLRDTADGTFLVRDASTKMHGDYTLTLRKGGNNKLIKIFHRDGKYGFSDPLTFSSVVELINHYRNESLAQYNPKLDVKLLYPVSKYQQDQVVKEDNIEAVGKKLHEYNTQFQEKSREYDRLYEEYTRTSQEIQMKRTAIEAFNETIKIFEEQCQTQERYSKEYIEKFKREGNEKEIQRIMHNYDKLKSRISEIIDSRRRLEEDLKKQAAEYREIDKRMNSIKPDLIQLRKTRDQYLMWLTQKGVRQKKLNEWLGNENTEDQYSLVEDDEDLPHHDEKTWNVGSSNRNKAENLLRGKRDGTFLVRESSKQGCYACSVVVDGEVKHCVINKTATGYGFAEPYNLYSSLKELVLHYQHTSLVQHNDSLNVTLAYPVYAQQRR

[8] = biological target: D1 (Rattus norvegicus, UniProt P18901); assay: Receptor characterization panel: D1 binding; details: read-out: 10 μM CR4056 (% effect), inhibition of specific binding
Sequence of D1 (P18901 whole entry): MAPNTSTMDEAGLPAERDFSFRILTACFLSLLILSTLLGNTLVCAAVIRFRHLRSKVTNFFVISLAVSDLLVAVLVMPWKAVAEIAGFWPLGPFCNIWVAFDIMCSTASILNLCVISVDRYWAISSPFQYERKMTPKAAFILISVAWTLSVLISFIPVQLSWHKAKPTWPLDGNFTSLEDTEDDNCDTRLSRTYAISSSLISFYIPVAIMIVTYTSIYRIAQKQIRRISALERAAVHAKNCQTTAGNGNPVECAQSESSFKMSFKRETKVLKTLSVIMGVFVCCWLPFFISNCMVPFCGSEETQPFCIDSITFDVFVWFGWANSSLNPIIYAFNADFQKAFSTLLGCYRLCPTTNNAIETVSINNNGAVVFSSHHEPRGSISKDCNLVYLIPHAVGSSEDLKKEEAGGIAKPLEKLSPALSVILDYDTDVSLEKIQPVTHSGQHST

[9] = biological target: catechol-O-methyl transferase (COMT) (Homo sapiens, UniProt P21964); assay: Enzyme characterization panel: COMT; assay type: biochemical; details: data not shown
Sequence of catechol-O-methyl transferase (COMT) (P21964 whole entry, species assumed): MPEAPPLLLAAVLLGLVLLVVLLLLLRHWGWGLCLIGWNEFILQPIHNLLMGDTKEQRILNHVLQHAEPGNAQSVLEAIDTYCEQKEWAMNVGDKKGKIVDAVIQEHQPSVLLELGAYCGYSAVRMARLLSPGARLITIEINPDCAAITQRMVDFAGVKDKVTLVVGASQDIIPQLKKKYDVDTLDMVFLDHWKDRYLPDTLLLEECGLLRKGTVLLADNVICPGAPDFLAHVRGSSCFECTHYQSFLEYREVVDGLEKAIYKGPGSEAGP

[10] = system: endogenous norepinephrine (NE) levels; assay: In vivo quantification of endogenous norepinephrine tissue levels; details: rat
[11] = biological target: PI 3-Kγ (Homo sapiens, UniProt P48736); assay: Enzyme characterization panel: PI 3-Kγ; assay type: biochemical; details: data not shown
Sequence of PI 3-Kγ (P48736 whole entry, species assumed): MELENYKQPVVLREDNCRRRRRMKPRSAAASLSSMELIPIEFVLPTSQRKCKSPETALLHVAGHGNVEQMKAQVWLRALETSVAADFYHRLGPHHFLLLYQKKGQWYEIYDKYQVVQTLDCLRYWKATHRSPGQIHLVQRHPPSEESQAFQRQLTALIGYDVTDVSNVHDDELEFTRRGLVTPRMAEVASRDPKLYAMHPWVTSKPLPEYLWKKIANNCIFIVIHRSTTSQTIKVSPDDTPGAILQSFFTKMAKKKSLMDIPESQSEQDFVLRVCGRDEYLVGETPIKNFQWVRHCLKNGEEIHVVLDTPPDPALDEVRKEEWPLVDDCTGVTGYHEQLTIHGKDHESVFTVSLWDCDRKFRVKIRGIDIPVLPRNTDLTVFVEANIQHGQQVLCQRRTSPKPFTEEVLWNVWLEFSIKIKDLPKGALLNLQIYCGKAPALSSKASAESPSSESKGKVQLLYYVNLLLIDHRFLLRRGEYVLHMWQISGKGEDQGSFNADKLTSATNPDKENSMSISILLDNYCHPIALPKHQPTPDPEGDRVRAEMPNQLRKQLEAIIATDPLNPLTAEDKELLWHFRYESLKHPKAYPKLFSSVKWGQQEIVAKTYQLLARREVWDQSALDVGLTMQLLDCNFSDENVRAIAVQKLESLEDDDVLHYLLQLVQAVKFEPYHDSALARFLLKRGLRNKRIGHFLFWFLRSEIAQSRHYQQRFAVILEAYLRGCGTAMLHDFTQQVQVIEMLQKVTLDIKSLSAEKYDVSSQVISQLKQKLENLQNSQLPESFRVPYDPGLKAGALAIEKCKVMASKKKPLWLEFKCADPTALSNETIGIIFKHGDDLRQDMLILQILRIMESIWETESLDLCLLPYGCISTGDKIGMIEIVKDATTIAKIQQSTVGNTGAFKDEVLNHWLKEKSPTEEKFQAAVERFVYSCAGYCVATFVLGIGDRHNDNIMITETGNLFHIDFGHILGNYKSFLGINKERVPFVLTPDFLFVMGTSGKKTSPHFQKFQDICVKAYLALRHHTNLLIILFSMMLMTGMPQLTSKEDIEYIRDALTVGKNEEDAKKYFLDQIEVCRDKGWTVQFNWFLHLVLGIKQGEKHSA

[12] = system: CFA-induced inflammatory pain in rats; assay: CFA-induced mechanical hyperalgesia; assay type: in vivo; details: rat; p.o., 24 hours after CFA
[13] = biological target: cycooxygenase-2 (COX2) (Homo sapiens, UniProt P35354); assay: Enzyme characterization panel: COX2; assay type: biochemical; details: data not shown
Sequence of cycooxygenase-2 (COX2) (P35354 18-604): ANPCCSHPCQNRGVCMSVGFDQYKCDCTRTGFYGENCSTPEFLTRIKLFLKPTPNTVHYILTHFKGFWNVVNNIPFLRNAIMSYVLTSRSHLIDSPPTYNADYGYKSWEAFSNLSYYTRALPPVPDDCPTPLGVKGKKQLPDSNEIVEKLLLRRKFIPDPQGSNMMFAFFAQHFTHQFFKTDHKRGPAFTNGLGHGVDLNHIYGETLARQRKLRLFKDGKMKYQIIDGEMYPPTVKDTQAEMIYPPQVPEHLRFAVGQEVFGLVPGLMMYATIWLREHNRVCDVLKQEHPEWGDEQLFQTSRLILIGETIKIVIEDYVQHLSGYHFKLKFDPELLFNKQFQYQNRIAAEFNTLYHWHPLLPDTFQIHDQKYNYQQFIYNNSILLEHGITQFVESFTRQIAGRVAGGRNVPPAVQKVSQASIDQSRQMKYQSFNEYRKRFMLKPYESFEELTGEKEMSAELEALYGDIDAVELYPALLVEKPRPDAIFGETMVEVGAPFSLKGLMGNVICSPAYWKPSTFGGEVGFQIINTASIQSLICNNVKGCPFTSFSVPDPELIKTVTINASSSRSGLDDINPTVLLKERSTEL

[14] = sub-chronic (four days) oral 20 mg/kg once daily, versus vehicle

Sequence of CCK1 (P30551 whole entry): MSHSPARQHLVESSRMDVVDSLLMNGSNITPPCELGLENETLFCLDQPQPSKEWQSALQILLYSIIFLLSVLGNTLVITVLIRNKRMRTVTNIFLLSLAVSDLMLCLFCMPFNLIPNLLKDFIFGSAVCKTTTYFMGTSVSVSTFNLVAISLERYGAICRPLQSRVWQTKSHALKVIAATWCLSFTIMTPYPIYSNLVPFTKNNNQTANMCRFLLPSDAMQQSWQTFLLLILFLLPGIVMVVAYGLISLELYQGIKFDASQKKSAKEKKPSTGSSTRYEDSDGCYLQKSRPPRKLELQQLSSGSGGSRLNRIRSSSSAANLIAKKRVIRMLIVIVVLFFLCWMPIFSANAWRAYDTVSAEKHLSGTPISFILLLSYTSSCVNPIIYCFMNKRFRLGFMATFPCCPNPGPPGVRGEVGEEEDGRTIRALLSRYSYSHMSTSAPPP

c1ccc(-c2ncc3cc(-n4ccnc4)ccc3n2)cc1 [CR4056, 2-phenyl-6-(1H-imidazol-1yl)quinazoline]
10 μM CR4056 (% effect), inhibition of specific binding [1]: 18%
inhibition at 10 µM [2]: 21%
IC50 [3]: 358 ± 12 nM
inhibition at 10 µM ([3]; read-out: 10 μM CR4056 (% effect), inhibition of specific binding, 10 μM, [3H]Ro 41-1049, cerebral cortex/rat): > 90%
IC50 [4]: > 10000 nM
Times less active as inhibitor of MAO-B activity than of MAO-A ([4]; human recombinant enzymes): about 100 times
Activity in enzyme characterization panel [5]: inactive
10 μM CR4056 (% effect), inhibition of specific binding [6]: 26%
Activity in enzyme characterization panel [7]: inactive
inhibition at 10 µM [8]: 19%
Activity in enzyme characterization panel [9]: inactive
Effect on NE levels, plasma ([10]; oral 20 mg/kg): No effect
Effect on NE levels, lumbar spinal cord ([10]; single oral dose 20 mg/kg, two hours after dosing): not statistically significant
Increase of endogenous NE levels, parieto-occipital cortex ([10]; single oral dose 20 mg/kg, two hours after dosing, versus vehicle): 68.2% ± 14.1%
Increase of NE levels, cerebral cortex [10, 14]: 63.1% ±4.2%
Increase of NE levels, lumbar spinal cord [10, 14]: 51.3% ± 6.7%
Activity in enzyme characterization panel [11]: inactive
ED100 (calculated), complete reversion of CFA-induced hyperalgesia [12]: 22.3 mg/kg
Activity in enzyme characterization panel [13]: inactive
